# From ChEMBL document CHEMBL1201862, “PubChem BioAssay data set” (2004)
# Active and inactive are the calls of the source.
# Legend:
# [1] = target: T1, Estrogen receptor beta (Homo sapiens, UniProt Q92731);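 also: recombinant ER-beta bound to coactivator SRC1 peptide in presence of estradiol agonist; inhibitors block coactivator peptide binding and lower the FRET signal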
# [2] = target: T1, Estrogen receptor beta; test: blockers of SRC-3 recruitment to ERβ – biochemical, ELISA, streptavidin-HRP readout, orthogonal assay, confirmation (AID 1060)
# [3] = target: T2, Estrogen receptor (Homo sapiens, UniProt P03372);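 also: potency for inhibiting coactivator peptide recruitment to the receptor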
# T2 sequence (P03372 whole entry): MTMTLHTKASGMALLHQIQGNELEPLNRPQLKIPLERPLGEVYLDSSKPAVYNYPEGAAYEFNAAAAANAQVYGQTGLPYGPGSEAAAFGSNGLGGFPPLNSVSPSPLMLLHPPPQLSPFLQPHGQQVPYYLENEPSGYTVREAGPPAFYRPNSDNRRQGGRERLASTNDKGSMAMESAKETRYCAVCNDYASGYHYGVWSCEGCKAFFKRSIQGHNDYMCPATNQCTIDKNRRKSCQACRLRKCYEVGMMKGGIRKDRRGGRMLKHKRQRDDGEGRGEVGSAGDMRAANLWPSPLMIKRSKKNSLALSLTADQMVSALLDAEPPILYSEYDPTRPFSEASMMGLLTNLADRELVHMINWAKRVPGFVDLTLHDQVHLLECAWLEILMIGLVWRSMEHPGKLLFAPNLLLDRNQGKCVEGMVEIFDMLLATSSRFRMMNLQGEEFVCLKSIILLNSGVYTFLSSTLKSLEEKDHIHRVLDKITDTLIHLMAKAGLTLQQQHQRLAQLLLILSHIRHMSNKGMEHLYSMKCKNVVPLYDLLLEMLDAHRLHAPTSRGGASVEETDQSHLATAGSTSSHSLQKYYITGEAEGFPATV
# [4] = tested on: Streptococcus; test: GAS UMAA2166 growth inhibition – luminescence, BacTiterGlo, counter-screen for streptokinase expression inhibitor project, dose response (AID 1915); type: functional, organism-based;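 also: potency for reduction of bacterial viability or growth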
# [5] = tested on: Streptococcus sp. 'group A'; test: Streptococcus pyogenes SK(-)GAS viability under kanamycin – luminescence, BacTiterGlo, confirmation, counter-screen for streptokinase expression inhibitor project, dose response (AID 1900); type: functional, organism-based
# [6] = target: Induced myeloid leukemia cell differentiation protein Mcl-1 (Homo sapiens, UniProt Q07820); type: functional
# Induced myeloid leukemia cell differentiation protein Mcl-1, sequence (Q07820 whole entry): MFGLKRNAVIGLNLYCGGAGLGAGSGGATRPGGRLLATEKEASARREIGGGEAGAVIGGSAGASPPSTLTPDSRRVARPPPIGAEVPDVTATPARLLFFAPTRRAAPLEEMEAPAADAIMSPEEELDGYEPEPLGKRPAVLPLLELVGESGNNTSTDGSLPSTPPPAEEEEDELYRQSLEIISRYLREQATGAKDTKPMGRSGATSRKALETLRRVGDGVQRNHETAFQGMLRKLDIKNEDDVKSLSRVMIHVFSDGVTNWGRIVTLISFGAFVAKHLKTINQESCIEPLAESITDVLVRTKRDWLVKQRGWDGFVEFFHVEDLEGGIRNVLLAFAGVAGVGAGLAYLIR
# [7] = target: Eukaryotic translation initiation factor 4E (Mus musculus, UniProt P63073); test: blockers of eIF4G binding by eIF4E – biochemical, TR-FRET, dose response (AID 855); type: functional;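 also: potency for disrupting eIF4E binding to eIF4GI seen as loss of FRET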
# Eukaryotic translation initiation factor 4E, sequence (P63073 whole entry): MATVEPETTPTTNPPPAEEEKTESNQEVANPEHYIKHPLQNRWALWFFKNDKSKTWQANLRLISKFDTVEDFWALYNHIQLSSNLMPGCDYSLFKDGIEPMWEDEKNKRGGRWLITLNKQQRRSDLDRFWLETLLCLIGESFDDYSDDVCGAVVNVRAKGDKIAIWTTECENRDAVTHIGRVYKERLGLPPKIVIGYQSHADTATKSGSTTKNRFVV
# [8] = target: DNA (cytosine-5)-methyltransferase 1 (Homo sapiens, UniProt P26358); test: inhibition of DNA methylation by DNMT1 – biochemical, fluorescent molecular beacon, confirmation (AID 602386); type: functional
# DNA (cytosine-5)-methyltransferase 1, sequence (P26358 whole entry): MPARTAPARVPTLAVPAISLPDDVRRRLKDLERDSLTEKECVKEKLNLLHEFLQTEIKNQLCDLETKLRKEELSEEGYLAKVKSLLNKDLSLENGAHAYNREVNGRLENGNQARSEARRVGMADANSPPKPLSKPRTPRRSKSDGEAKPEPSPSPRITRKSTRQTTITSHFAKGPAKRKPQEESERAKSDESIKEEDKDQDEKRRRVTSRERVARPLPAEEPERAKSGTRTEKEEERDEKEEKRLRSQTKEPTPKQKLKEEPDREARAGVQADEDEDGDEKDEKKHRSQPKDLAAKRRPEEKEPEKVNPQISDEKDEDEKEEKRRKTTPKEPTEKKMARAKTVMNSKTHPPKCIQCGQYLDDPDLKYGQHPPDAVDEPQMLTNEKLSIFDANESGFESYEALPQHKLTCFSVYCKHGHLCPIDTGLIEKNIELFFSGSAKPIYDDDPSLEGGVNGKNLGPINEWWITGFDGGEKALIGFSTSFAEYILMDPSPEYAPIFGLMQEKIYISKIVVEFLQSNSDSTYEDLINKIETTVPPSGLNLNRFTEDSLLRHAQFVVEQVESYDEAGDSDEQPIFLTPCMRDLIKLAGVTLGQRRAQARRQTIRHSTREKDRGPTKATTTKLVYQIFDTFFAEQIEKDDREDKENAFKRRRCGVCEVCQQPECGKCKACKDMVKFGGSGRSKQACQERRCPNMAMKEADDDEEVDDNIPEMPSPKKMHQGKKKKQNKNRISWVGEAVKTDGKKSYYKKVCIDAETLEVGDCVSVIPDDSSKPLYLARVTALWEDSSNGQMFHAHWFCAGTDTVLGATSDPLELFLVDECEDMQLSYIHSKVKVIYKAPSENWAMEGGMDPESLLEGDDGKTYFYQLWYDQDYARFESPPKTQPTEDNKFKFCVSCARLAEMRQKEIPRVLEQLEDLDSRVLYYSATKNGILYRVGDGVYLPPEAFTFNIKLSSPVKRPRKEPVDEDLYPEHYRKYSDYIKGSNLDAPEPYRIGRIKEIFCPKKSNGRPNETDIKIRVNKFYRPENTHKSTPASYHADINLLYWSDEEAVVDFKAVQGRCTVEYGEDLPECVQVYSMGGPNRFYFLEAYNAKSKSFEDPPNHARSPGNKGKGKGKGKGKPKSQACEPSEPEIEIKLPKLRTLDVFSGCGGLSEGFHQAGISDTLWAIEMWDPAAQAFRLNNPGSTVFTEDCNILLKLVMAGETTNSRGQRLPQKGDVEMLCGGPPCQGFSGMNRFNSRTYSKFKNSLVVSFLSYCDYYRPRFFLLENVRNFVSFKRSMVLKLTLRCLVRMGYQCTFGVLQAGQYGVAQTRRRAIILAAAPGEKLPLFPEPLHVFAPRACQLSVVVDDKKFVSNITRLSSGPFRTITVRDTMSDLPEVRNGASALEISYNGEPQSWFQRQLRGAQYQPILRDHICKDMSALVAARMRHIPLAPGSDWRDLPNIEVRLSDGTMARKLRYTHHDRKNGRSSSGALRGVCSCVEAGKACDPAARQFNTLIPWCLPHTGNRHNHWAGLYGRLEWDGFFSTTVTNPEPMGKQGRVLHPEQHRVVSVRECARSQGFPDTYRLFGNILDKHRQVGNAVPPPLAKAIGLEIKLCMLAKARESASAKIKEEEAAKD
# [9] = tested on: HEK293; test: cells; type: functional, cell-based; conditions: Homo sapiens
# [10] = tested on: HEK293; test: inhibition of NOD1-driven NF-kB reporter – cell-based, luminescence, uHTS, primary screen (AID 1578); type: functional; conditions: Homo sapiens
# [11] = tested on: HEK293; test: cells; type: functional, cell-based; conditions: Homo sapiens; remark: listed apart in the source
# [12] = target: Nucleotide-binding oligomerization domain-containing protein 2 (Homo sapiens, UniProt Q9HC29); test: inhibition of NOD2-driven NF-kB reporter – cell-based, luminescence, uHTS, HEK293 (AID 1566); type: functional
# Nucleotide-binding oligomerization domain-containing protein 2, sequence (Q9HC29 whole entry, the tested form may be a part): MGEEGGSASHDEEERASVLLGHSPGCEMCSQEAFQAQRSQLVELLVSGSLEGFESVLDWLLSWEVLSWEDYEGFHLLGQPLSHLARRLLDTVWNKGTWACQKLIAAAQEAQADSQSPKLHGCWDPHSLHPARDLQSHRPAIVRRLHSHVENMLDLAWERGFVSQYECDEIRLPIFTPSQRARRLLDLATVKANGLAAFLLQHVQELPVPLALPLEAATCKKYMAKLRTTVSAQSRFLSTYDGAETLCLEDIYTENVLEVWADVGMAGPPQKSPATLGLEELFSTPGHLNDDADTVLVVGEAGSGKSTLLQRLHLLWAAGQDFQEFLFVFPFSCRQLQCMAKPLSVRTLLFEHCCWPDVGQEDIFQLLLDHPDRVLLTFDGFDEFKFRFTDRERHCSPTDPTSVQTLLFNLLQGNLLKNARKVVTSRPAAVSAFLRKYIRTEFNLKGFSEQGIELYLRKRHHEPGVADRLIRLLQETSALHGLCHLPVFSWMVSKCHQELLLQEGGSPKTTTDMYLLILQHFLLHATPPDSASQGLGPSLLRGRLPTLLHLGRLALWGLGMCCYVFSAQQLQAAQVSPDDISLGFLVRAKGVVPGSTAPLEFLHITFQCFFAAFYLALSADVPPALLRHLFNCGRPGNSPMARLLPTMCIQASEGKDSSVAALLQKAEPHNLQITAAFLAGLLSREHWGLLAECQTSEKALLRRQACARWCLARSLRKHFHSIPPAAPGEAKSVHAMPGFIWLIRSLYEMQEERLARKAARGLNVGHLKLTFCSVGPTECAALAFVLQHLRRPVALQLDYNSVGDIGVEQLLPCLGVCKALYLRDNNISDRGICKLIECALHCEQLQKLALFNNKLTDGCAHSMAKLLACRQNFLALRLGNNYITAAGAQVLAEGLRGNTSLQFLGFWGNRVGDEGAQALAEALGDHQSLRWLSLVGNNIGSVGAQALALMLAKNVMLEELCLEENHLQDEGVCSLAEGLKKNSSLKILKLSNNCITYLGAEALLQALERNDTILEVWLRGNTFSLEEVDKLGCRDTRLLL
# [13] = tested on: HEK293; test: NOD2 signaling inhibitors in MDP-stimulated cells, cell-based, uHTS, luminescence (AID 2001); type: functional; conditions: Homo sapiens
# [14] = tested on: HEK293; test: cells; type: functional, cell-based; conditions: Homo sapiens; remark: listed apart in the source
# [15] = target: T3, Corticotropin-releasing factor receptor 2/Corticotropin-releasing factor-binding protein (Homo sapiens, UniProt P24387+Q13324); test: activators of CRF receptor 2 with binding protein – uHTS hits, confirmation (AID 602473); type: functional; conditions: read-out: EC50_Mean
# T3 sequence (Q13324 whole entry): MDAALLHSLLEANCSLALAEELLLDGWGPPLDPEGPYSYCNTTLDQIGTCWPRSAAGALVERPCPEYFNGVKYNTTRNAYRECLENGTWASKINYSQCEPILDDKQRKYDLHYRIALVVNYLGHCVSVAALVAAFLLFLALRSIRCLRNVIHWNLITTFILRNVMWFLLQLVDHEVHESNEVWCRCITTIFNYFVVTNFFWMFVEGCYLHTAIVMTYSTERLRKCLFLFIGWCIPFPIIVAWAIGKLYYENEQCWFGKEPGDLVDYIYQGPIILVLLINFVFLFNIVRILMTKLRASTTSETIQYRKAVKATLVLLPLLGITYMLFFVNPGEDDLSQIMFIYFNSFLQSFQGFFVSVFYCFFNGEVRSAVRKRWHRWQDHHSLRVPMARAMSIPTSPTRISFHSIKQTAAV
# T3 sequence (P24387 whole entry): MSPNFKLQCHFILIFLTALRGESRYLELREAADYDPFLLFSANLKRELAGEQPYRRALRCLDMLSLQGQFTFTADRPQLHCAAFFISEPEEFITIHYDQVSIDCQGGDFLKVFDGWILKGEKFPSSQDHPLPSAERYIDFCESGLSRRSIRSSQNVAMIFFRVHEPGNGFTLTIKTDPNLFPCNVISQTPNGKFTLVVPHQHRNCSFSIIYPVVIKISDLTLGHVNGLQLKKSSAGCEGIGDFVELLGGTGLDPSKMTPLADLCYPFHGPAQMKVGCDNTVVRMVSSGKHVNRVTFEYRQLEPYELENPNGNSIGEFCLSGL
# [16] = target: T3, Corticotropin-releasing factor receptor 2/Corticotropin-releasing factor-binding protein; test: Dose Response confirmation of uHTS hits for small molecule antagonists of the CRF-binding protein and CRF-R2 receptor complex.; type: functional; conditions: read-out: IC50_Mean
# [17] = A Cell Based Secondary Assay To Explore Cytotoxicity of Compounds that Sensitize Mycobacterium Tuberculosis to Beta-Lactam Antibiotics.; type: functional
# [18] = target: Cytochrome P450 2C9 (Homo sapiens, UniProt P11712)
# Cytochrome P450 2C9, sequence (P11712 whole entry): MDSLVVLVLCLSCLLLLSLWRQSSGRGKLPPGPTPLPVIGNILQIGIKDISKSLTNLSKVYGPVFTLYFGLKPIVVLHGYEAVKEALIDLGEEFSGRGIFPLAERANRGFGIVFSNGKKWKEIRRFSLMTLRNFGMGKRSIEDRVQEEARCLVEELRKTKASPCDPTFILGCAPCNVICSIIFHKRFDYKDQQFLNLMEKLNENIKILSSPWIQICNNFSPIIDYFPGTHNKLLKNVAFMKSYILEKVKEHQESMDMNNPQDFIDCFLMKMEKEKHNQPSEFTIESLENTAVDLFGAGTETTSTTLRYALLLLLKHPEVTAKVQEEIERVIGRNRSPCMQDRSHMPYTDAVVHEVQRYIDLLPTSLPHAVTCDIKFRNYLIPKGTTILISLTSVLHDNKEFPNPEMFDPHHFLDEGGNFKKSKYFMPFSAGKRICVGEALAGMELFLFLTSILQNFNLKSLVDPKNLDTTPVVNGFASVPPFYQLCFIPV
# [19] = target: G-protein coupled receptor 55 (Homo sapiens, UniProt Q9Y2T6); test: selective activators of receptor GPR55 – imaging, U2OS cells, beta-arrestin-GFP redistribution, primary screen (AID 1961); type: functional
# G-protein coupled receptor 55, sequence (Q9Y2T6 whole entry): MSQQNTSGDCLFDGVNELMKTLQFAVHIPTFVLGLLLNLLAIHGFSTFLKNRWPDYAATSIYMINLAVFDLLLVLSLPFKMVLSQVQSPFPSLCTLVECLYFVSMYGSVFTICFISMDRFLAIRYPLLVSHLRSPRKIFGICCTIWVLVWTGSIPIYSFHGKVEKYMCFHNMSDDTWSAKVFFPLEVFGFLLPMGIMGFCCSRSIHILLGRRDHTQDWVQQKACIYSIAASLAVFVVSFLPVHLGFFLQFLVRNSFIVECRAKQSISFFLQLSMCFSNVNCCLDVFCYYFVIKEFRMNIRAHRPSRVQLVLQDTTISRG
# T1 sequence (Q92731 whole entry): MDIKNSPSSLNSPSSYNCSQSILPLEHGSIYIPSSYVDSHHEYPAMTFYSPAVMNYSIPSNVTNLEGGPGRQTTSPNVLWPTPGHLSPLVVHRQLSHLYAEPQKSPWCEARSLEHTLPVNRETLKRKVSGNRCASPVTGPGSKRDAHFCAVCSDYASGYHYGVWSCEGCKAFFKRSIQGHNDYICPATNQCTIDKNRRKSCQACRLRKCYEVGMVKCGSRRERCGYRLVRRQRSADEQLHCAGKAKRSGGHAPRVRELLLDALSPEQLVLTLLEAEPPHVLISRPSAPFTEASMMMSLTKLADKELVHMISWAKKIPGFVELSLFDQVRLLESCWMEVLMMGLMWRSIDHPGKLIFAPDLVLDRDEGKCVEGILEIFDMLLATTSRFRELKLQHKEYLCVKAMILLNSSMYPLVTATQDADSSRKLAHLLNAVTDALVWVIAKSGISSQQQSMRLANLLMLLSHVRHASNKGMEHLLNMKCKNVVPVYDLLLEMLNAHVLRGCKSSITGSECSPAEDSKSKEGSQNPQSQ
smiles,measurement,setting,value
C=CCn1c(SCC(=O)NC(=O)NCc2ccco2)nc2sc(CC)cc2c1=O,IC50,[1],13.6 µM (active)
same,IC50,[2],0.0317 µM (not active)
same,IC50,[3],10.1 µM (active)
Cc1ccc(NC(=O)CN2C(=O)S/C(=C/c3ccc(-c4cc(C(=O)O)ccc4C)o3)C2=O)cc1C,EC50,[4],6.89 µM (active)
same,EC50,[5],2.31 µM (active)
same,IC50,[6],2.05 µM (active)
same,IC50,[7],14.4 µM (active)
same,IC50,[8],11.3 µM (active)
same,IC50,[3],18.2 µM (active)
O=C(Nc1cccc(Br)c1)c1ccc(Cl)c(S(=O)(=O)N2CCOCC2)c1,IC50,[9],> 20 µM (inactive)
same,EC50,[10],10.3 µM (active)
same,IC50,[11],2.87 µM (active)
same,EC50,[12],> 20 µM (inactive)
same,IC50,[13],3.44 µM (active)
same,IC50,[14],6.44 µM (active)
Cc1cc2c(N=NC(=O)C3CC3c3ccccc3)c(O)[nH]c2cc1Br (stereo not given),EC50,[15],> 53 µM (inactive)
same,IC50,[16],> 47.1 µM (inactive)
same,CC50,[17],32.8 µM (active)
O=C(CSc1nc2ccccc2o1)N1c2ccccc2Sc2ccc(Cl)cc21,AC50,[18],3.16 µM (inconclusive)
same,EC50,[19],> 32 µM (inactive)
